Reference: ChEMBL document CHEMBL3997814, “Identification of novel inverse agonists of estrogen-related receptors ERRγ and ERRβ” (Bioorg Med Chem, 2017)
Calls of active or inactive are those of the source. No cut-off for these calls is given here.

Columns and labels:
[1] = molecular target: T1, Steroid hormone receptor ERR1 (Homo sapiens) (UniProt P11474); assay: Inverse agonist activity at GAL4-DNA binding domain-fused human ERRalpha ligand binding domain expressed in African green monkey CV1 cells assessed as decrease in receptor transcriptional activity at 10 uM after 45 hrs by luciferase reporter gene assay; assay type: cell-based
T1 sequence (whole entry): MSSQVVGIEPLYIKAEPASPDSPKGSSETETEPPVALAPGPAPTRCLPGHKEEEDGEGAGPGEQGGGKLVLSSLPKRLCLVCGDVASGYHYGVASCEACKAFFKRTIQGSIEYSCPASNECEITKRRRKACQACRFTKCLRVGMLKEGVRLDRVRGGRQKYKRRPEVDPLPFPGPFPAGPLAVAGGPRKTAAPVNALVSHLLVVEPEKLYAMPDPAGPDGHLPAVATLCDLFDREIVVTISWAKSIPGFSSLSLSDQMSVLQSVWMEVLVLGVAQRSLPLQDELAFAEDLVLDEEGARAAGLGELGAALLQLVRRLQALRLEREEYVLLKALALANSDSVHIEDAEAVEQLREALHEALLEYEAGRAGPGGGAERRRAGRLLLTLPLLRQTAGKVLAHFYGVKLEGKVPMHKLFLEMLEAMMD

[2] = molecular target: Estrogen receptor beta (Homo sapiens) (UniProt Q92731); assay: Inverse agonist activity at human ERbeta expressed in African green monkey CV1 cells assessed as decrease in receptor transcriptional activity up to 3 uM after 45 hrs by luciferase reporter gene assay; assay type: cell-based
Estrogen receptor beta (Homo sapiens), sequence (Q92731 whole entry): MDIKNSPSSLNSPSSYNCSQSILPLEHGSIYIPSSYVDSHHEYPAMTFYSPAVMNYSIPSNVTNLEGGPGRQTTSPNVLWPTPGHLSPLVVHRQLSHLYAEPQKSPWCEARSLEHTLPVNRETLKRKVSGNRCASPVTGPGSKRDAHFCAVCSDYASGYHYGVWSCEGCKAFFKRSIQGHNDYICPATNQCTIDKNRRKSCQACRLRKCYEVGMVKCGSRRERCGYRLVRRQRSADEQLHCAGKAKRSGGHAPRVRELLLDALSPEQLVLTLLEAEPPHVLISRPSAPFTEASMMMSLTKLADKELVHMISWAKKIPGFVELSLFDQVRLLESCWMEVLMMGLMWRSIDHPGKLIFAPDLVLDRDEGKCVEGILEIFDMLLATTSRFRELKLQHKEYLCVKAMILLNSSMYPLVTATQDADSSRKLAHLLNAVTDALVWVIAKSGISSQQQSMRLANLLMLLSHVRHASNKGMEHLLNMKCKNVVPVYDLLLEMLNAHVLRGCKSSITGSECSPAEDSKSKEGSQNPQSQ

[3] = molecular target: T2, Estrogen receptor (Homo sapiens) (UniProt P03372); assay: Inverse agonist activity at human ERalpha expressed in African green monkey CV1 cells assessed as decrease in receptor transcriptional activity up to 3 uM after 45 hrs by luciferase reporter gene assay; assay type: cell-based
T2 sequence (whole entry): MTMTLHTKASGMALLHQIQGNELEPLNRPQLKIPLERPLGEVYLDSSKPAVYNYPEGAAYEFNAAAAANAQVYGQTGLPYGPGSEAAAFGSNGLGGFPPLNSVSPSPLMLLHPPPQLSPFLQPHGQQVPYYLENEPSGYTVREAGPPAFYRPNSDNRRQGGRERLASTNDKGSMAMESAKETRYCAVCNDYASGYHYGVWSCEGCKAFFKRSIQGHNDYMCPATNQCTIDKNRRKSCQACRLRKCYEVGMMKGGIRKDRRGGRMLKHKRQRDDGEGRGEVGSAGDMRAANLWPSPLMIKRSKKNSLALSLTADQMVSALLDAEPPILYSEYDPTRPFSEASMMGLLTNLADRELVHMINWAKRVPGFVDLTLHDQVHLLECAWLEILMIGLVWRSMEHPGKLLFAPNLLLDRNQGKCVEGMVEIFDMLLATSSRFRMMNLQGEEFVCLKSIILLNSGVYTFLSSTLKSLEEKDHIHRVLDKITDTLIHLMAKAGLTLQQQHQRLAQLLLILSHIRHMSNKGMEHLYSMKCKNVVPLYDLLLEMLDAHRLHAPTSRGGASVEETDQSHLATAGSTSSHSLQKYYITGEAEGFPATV

[4] = molecular target: T3, Estrogen-related receptor gamma (Mus musculus, UniProt P62509)
T3 sequence (P62509 whole entry): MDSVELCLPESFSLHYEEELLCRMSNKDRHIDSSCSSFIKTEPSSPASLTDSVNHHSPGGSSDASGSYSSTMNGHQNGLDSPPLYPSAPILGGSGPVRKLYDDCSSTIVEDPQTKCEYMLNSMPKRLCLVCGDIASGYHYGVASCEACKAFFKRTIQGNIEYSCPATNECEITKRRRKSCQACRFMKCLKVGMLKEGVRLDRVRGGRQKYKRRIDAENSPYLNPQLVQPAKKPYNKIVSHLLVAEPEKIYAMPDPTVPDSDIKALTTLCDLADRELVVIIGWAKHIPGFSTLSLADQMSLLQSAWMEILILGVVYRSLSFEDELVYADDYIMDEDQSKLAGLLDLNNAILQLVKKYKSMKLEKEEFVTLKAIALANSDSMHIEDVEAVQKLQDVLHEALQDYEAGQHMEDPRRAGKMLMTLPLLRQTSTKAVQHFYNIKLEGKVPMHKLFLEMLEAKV
Description: Inverse agonist activity at GAL4-DNA binding domain-fused mouse ERRgamma ligand binding domain expressed in African green monkey CV1 cells assessed as decrease in receptor transcriptional activity after 45 hrs by luciferase reporter gene assay

[5] = molecular target: T2, Estrogen receptor (Homo sapiens); assay: Antagonist activity at human ERalpha expressed in African green monkey CV1 cells assessed as decrease in receptor transcriptional activity after 45 hrs by luciferase reporter gene assay; assay type: cell-based
[6] = molecular target: T1, Steroid hormone receptor ERR1 (Homo sapiens); assay: Inverse agonist activity at GAL4-DNA binding domain-fused human ERRalpha ligand binding domain expressed in African green monkey CV1 cells assessed as decrease in receptor transcriptional activity after 45 hrs by luciferase reporter gene assay; assay type: cell-based

Row | Structure (SMILES) | Activity [1] | also measured
1 | CN(C)CCOc1ccc(/C(=C(/CCCO)c2ccccc2)c2ccc(O)cc2)cc1 | inactive | –
2 | COC(=O)C(C)C/C(=C(\c1ccc(O)cc1)c1ccc(OCCN(C)C)cc1)c1ccccc1 (stereo not given) | inactive | Activity [2]: inactive; Activity [3]: inactive
3 | CC(C)/C(=C(\c1ccc(O)cc1)c1ccc(OCCN(C)C)cc1)c1ccccc1 | inactive | –
4 | COC(=O)CC/C(=C(\c1ccc(O)cc1)c1ccc(OCCN(C)C)cc1)c1ccccc1 | inactive | Activity [2]: inactive; Activity [3]: inactive
5 | CC/C(=C(\c1ccc(O)cc1)c1ccc(OCCN(C)C)cc1)c1ccccc1 | inactive | –
6 | CC(=O)Oc1ccc(/C(=C(\CCCO)c2ccccc2)c2ccc(OCCN(C)C)cc2)cc1 | inactive | IC50 [4]: 300 nM
7 | COC(=O)C(C)CC(=C(c1ccc(O)cc1)c1ccc(O)cc1)c1ccccc1 (stereo not given) | inactive | –
8 | COC(=O)CCC(=C(c1ccc(O)cc1)c1ccc(O)cc1)c1ccccc1 | inactive | –
9 | CC(=O)Oc1ccc(/C(=C(/c2ccccc2)C(C)C)c2ccc(OCCN(C)C)cc2)cc1 | inactive | inhibition [5]: Active
10 | CC(C)C/C(=C(\c1ccc(O)cc1)c1ccc(OCCN(C)C)cc1)c1ccccc1 | inactive | IC50 [4]: 1000 nM
11 | CC(CO)C/C(=C(\c1ccc(O)cc1)c1ccc(OCCN(C)C)cc1)c1ccccc1 (stereo not given) | inactive | –
12 | CC/C(=C(/c1ccc(O)cc1)c1ccc(OCCN(C)C)cc1)c1ccccc1 | – | Activity [6]: inactive
13 | CC(=O)Oc1ccc(/C(=C(\CC(C)CO)c2ccccc2)c2ccc(OCCN(C)C)cc2)cc1 (stereo not given) | inactive | –
